How the values were obtained:
Assay type in all cases: functional
[1] = tested on: HT-29; test: Cytotoxicity against human HT-29 cells after 48 hrs by SRB assay; conditions: HT-29, 48 h
[2] = tested on: MDA-MB-231; test: Cytotoxicity against human MDA-MB-231 cells after 48 hrs by SRB assay; conditions: MDA-MB-231, 48 h; for CC50: read-out: LC50 (the source's name)
[3] = tested on: A549; test: Cytotoxicity against human A549 cells after 48 hrs by SRB assay; conditions: A549, 48 h

Structure (SMILES)	GI50 [1]	LC50 [1]	TGI [1]	GI50 [2]	TGI [2]	CC50 [2]	GI50 [3]	LC50 (concentration causing 50% net cell kill) [3]	TGI [3]
COc1c(C)c(OC)c(OC)c2c1C[C@H]1[C@@H](OC)N(C(=O)OC(C)C)CC(=O)N1[C@H]2COCc1ccccc1	0.195 µM	0.527 µM	0.273 µM	12.3 µM	> 18.4 µM	> 18.4 µM	11.2 µM	> 18.4 µM	> 18.4 µM
COc1c(C)c(OC)c(OC)c2c1C[C@H]1CN(C(=O)OC(C)(C)C)CC(=O)N1[C@H]2COCc1ccccc1	8.66 µM	> 18.4 µM	> 18.4 µM	14.1 µM	> 19 µM	> 19 µM	8.82 µM	> 19 µM	> 19 µM
COc1c(C)c(OC)c(OC)c2c1C[C@H]1CN(C(=O)OC(C)C)[C@@H](Cc3ccccc3)C(=O)N1[C@H]2COCc1ccccc1	16.3 µM	> 16.3 µM	> 16.3 µM	> 16.6 µM	> 16.6 µM	> 16.6 µM	> 16.6 µM	> 16.6 µM	> 16.6 µM
COc1c(C)c(OC)c(OC)c2c1C[C@H]1CN(C(=O)OC(C)(C)C)[C@@H](Cc3ccccc3)C(=O)N1[C@H]2COCc1ccccc1	9.13 µM	> 16.6 µM	> 16.6 µM	7.13 µM	10.5 µM	> 16.2 µM	7.3 µM	> 16.2 µM	> 16.2 µM
COc1c(C)c(OC)c(OC)c2c1C[C@H]1CN(C)[C@@H](Cc3ccccc3)C(=O)N1[C@H]2COCc1ccccc1	13 µM	> 16.2 µM	> 16.2 µM	> 18.8 µM	> 18.8 µM	> 18.8 µM	12.2 µM	> 18.8 µM	> 18.8 µM
COc1c(C)c(OC)c(OC)c2c1C[C@H]1[C@@H](OC)N(C(=O)OC(C)C)[C@@H](Cc3ccccc3)C(=O)N1[C@H]2COCc1ccccc1	11.3 µM	> 18.8 µM	> 18.8 µM	12.2 µM	> 15.8 µM	> 15.8 µM	11.1 µM	> 15.8 µM	> 15.8 µM
COc1ccc(C[C@H]2C(=O)N3[C@@H](COCc4ccccc4)c4c(c(OC)c(C)c(OC)c4OC)C[C@H]3[C@@H](OC)N2C(=O)OC(C)C)cc1OC	12.3 µM	> 15.8 µM	> 15.8 µM	9.53 µM	> 14.4 µM	> 14.4 µM	6.21 µM	> 14.4 µM	> 14.4 µM
COc1ccc(C[C@H]2C(=O)N3[C@@H](COCc4ccccc4)c4c(c(OC)c(C)c(OC)c4OC)C[C@H]3[C@@H](OC)N2C(=O)OC(C)(C)C)cc1OC	9.38 µM	> 14.4 µM	> 14.4 µM	> 14.1 µM	> 14.1 µM	> 14.1 µM	9.2 µM	> 14.1 µM	> 14.1 µM
COc1cc(C[C@@H]2NCC3=Cc4c(OC)c(C)c(OC)c(OC)c4[C@H](COC(=O)c4cccc5ccccc45)N3C2=O)c(OC)c(C)c1OC	7.64 µM	> 14.1 µM	> 14.1 µM	8.79 µM	> 14.6 µM	> 14.6 µM	2.78 µM	> 14.6 µM	> 14.6 µM
COc1cc(C[C@H]2NC=C3Cc4c(OC)c(C)c(OC)c(OC)c4[C@H](COC(=O)/C=C/c4ccccc4)N3C2=O)c(OC)c(C)c1OC	11.1 µM	> 14.6 µM	> 14.6 µM	10.6 µM	> 15.2 µM	> 15.2 µM	6.53 µM	> 15.2 µM	> 15.2 µM
COc1c(C)c(OC)c(OC)c2c1C[C@H]1[C@H]3c4ccccc4C[C@@H](C(=O)N1[C@H]2COCc1ccccc1)N3C(=O)OC(C)C	12.3 µM	> 15.2 µM	> 15.2 µM	8.32 µM	> 16.6 µM	> 16.6 µM	> 16.6 µM	> 16.6 µM	> 16.6 µM
COc1c(C)c(OC)c(OC)c2c1C[C@H]1[C@H]3c4ccccc4C[C@@H](C(=O)N1[C@H]2CO)N3C(=O)OC(C)C	14 µM	> 16.6 µM	> 16.6 µM	17.6 µM	> 19.6 µM	> 19.6 µM	> 19.6 µM	> 19.6 µM	> 19.6 µM
COc1c(C)c(OC)c(OC)c2c1C[C@H]1N[C@@H]2[C@@H]2Cc3c(OC)c(C)c(OC)c(OC)c3[C@H](COC(=O)c3cccc4ccccc34)N2C1=O	6.67 µM	> 18 µM	> 18 µM	10.3 µM	> 14.6 µM	> 14.6 µM	7.32 µM	> 14.6 µM	> 14.6 µM
COc1c(C)c(OC)c(OC)c2c1C[C@H]1CN(C(=O)OC(C)C)CC(=O)N1[C@H]2COCc1ccccc1	8.32 µM		9.84 µM						
COc1c(C)c(OC)c(OC)c2c1C[C@H]1[C@@H](O)N(C(=O)OC(C)C)CC(=O)N1[C@H]2COCc1ccccc1		> 1.31 µM							
CCCN1CC(=O)N2[C@@H](Cc3c(OC)c(C)c(OC)c(OC)c3[C@@H]2COCc2ccccc2)C1 (relative stereo)	11.2 µM	> 19 µM	> 19 µM	16.6 µM	> 21.3 µM	> 21.3 µM	10 µM	> 21.3 µM	> 21.3 µM
COc1c(C)c(OC)c(OC)c2c1C[C@H]1CN(Cc3ccccc3)CC(=O)N1[C@H]2COCc1ccccc1 (relative stereo)	12 µM	> 21.3 µM	> 21.3 µM	11.2 µM	> 19.4 µM	> 19.4 µM	7.16 µM	> 19.4 µM	16.1 µM
COc1c(C)c(OC)c(OC)c2c1C[C@H]1CN(Cc3ccc4ccccc4c3[N+](=O)[O-])CC(=O)N1[C@H]2COCc1ccccc1 (relative stereo)	4.06 µM	17.8 µM	9.48 µM	8.01 µM	> 16.3 µM	> 16.3 µM	> 16.3 µM	> 16.3 µM	> 16.3 µM
COc1c(C)c(OC)c(OC)c2c1C[C@@H]1N[C@H]2[C@@H]2Cc3c(OC)c(C)c(OC)c(OC)c3[C@H](CO)N2C1=O (relative stereo)	12.3 µM	> 15.1 µM	> 15.1 µM	16.1 µM	> 18.9 µM	> 18.9 µM	> 18.9 µM	> 18.9 µM	> 18.9 µM
COc1c(C)c(OC)c(OC)c2c1C[C@H]1[C@@H]3N[C@@H](Cc4ccccc43)C(=O)N1[C@H]2COC(=O)c1cccc2ccccc12 (relative stereo)	> 18.9 µM	> 18.9 µM	> 18.9 µM	8.64 µM	> 17.3 µM	> 17.3 µM	13.3 µM	> 17.3 µM	> 17.3 µM
COc1c(C)c(OC)c(OC)c2c1C[C@H]1[C@@H]3N[C@@H](Cc4ccccc43)C(=O)N1[C@H]2COC(=O)/C=C/c1ccccc1 (relative stereo)	6.22 µM	> 17.3 µM	> 17.3 µM	15 µM	> 18 µM	> 18 µM	1.05 µM	> 18 µM	> 18 µM
COc1c(C)c(OC)c(OC)c2c1C[C@H]1[C@@H]3c4c(c(OC)c(C)c(OC)c4OC)C[C@H](C(=O)N1C2COC(=O)c1cccc2ccccc12)N3C (relative stereo)	6.88 µM	> 14.6 µM	> 14.6 µM	7.46 µM	> 14.4 µM	> 14.4 µM	6.17 µM	> 14.4 µM	> 14.4 µM
COc1c(C)c(OC)c(OC)c2c1C[C@H]1[C@H]3c4ccccc4C[C@@H]([C@H](C#N)N1[C@H]2CO)N3C (relative stereo)	5.17 µM	> 14.4 µM	> 14.4 µM	7.65 µM	12.9 µM	18.7 µM	5.78 µM	18.7 µM	12 µM
COc1c(C)c(OC)c(OC)c2c1C[C@H]1[C@H](C#N)N3[C@@H](CO)c4c(c(OC)c(C)c(OC)c4OC)C[C@H]3[C@@H]2N1C (relative stereo)	7.12 µM	15.1 µM	10.5 µM	4.7 µM	9.03 µM	14.1 µM	3.43 µM	13.2 µM	8.13 µM
COc1c(C)c(OC)c(OC)c2c1C[C@H]1[C@H]3c4ccccc4C[C@@H]([C@H](C#N)N1[C@H]2COC(=O)/C=C/c1cccc(C(F)(F)F)c1)N3C (relative stereo)	3.25 µM	6.5 µM	4.52 µM	2.47 µM	2.62 µM	2.78 µM	2.32 µM	3.86 µM	2.93 µM
COc1cc2c(cc1O)CCN[C@]21CS[C@@H]2c3c(OC(C)=O)c(C)c4c(c3[C@H](COC1=O)N1[C@@H]2[C@H]2c3c(cc(C)c(OC)c3O)C[C@@H]([C@@H]1O)N2C)OCO4 [TRABECTEDIN]	2.47 µM		2.93 µM	0.000396 µM	0.00101 µM	0.0017 µM	0.00281 µM		0.00315 µM

Source: ChEMBL document CHEMBL1221363, “Cytotoxicity of new pyrazino[1,2-b]isoquinoline and 6,15-iminoisoquino[3,2-b]3-benzazocine compounds” (2010)
